This is an account of results in patent US9987280B2, “SIRT1 inhibitors and stem cell rejuvenation” (City of Hope, priority 2013, dated 2018).

The test system of experiment [1] is Burkitt lymphoma. The conditions noted are these: single agent; cited from earlier work.
Experiment [2] relates to Ku70. The experiment in a line: Immunoprecipitation of LSD1 or SIRT1 in KCL-22 cells to detect interaction with Ku70. Format: cell-based. The procedure:
IP of LSD1 or SIRT1 was carried out in KCL-22 cells to detect their interaction with Ku70, respectively. […] (B) Without and with treatment of 1 mM H2O2 for 1 h and 0.25 μM camptothecin (CPT) for 12 h. Flag was used for IP control.
To explore the mechanisms, Applicants used immunoprecipitation (IP) assay to examine SIRT1, LSD1 and Ku70 interaction.

Experiment [3] has as its system KCL-22 CML cells. Conditions: KCL-22 CML cells upon imatinib treatment; cited from earlier work.
[4] abbreviates: 2.5 μM imatinib (STI) for 24 and 48 h.

In the case of `O=c1[nH]c(S)nc(-c2ccccc2)c1Cc1c(O)ccc2ccccc12` [cambinol, 5-[(2-hydroxy-1-naphthyl)methyl]-2-mercapto-6-phenyl-4(3H)-pyrimidinone], in experiment [1], the “sensitivity of Burkitt lymphoma” value was “sensitive”.
Regarding `CC[C@@]1(O)C(=O)OCc2c1cc1n(c2=O)Cc2cc3ccccc3nc2-1` [camptothecin], in experiment [2] (0.25 μM camptothecin (CPT) for 12 h), the “LSD1/SIRT1 interaction with Ku70” value is “switch of LSD1/SIRT1 interaction with Ku70”.
Take `OO` [hydrogen peroxide]: in experiment [2] (1 mM H2O2 for 1 h), the “LSD1/SIRT1 interaction with Ku70” value was “switch of LSD1/SIRT1 interaction with Ku70”.
As for `Cc1ccc(NC(=O)c2ccc(CN3CCN(C)CC3)cc2)cc1Nc1nccc(-c2cccnc2)n1` [imatinib], in experiment [2] (setting [4]), the “LSD1 interaction with Ku70” value is “reduced” and the “SIRT1 interaction with Ku70” value was “rapidly enhanced”. The “total SIRT1 level” value in experiment [2] (48 h drug treatment) is given as “partially reduced”. Moreover, the “acquisition of T315I BCR-ABL kinase domain mutation” value in experiment [3] is reported as “rapidly acquire T315I BCR-ABL kinase domain mutation”.
